The text below walks through data of patent US8188109B2, “Benzoquinolizinium salt derivatives as anticancer agents” (Naxospharma S.r.l., priority 2009, dated 2012).

Molecules are shown by their SMILES. Like-named read-outs stand apart in the source and are kept apart here.

The subject of experiment [1] is cisplatin resistant A2780 cells (A2780/CP). Briefly: Cell growth assay (crystal violet dye), A2780/CP cells. In kind it is cell-based, human. The conditions noted are these: Homo sapiens, A2780C/P, 72 hrs exposure, read-out: IC50 (cell growth inhibition). The procedure:
(§1) The human ovarian cancer cell line A2780 and a platinum-resistant subline selected in vitro by stepwise increases of cisplatin concentration in the medium were from University of Modena and Reggio Emilia. The cisplatin resistant A2780 cells were challenged weekly with 50 uM cisplatin for 1 hr. Both cell lines were maintained in RPMI 1640 medium with 10% (vol/vol) fetal calf serum, penicillin (62.9 mg/L), and streptomycin (100 mg/L) (GIBCO).
(§2) Cell growth assay. Cell growth was determined by a modification of the crystal violet dye assay (Analytical biochemistry, 182, 16 1989). On selected days, after removal of the tissue culture medium, the cell monolayer was fixed with methanol prior to staining with 0.2% crystal violet solution in 20% methanol for at least 30 minutes. After washing several times with distilled water to remove the dye excess, the cells were let to dry. The incorporated dye was solubilized in acidic isopropanol (1N HCl : 2-propanol, 1:10). After appropriate dilution, dye was determined spectrophotometrically at 540 nm. The extracted dye was proportional to cell number. Percentage of cytotoxicity was calculated by comparing the absorbance of cultures exposed to the compounds of the invention to non-exposed (control) cultures. Percentage of cytotoxicity is here reported as the half maximal inhibitory concentration (IC50), which is a measure of the effectiveness of a compound of the invention in inhibiting cell growth by half with respect to control (100%).

The test system of experiment [2] is cDDP-resistant C13* subline. Nature of the experiment: Cell growth assay (crystal violet dye), C13* cells. In kind it is cell-based, human. Particulars: Homo sapiens; C13* cells, 72 hrs exposure; read-out: IC50 (cell growth inhibition). The procedure: (§3) For the determination of the in vitro antitumour activities, the compounds of the invention were assayed in a panel of sensible, resistant and refractary tumour cell lines, which are only exemplary for the antitumour activity of the inventive compounds, and are not to be construed as limiting their antitumour activities only to the cell lines set forth herein. Cell lines. The 2008 cell line was established from a patient with serous cystadenocarcinoma of the ovary and the cDDP-resistant C13* subline, about 15-fold resistant to cDDP, was derived from the parent 2008 cell line by monthly exposure to cDDP, followed by chronic exposure to step-wise increases in cDDP concentration (Cancer Research 52, 1895, 1992). The cell lines were grown as monolayers in RPMI 1640 medium containing 10% heat-inactivated fetal bovine serum and 50 μg/mL gentamycin sulfate. All cell media and serum were purchased from (Lonza, Verviers, Belgium). Cultures were equilibrated with humidified 5% CO2 in air at 37° C. All studies were performed in Mycoplasma negative cells, as routinely determined with the MycoAlert Mycoplasma detection kit (Lonza, Walkersville, Md., USA).
as §2

Experiment [3] deals with 2008 cell line (serous cystadenocarcinoma of the ovary). Briefly: Cell growth assay (crystal violet dye), 2008 cells. The class given is cell-based, human. Particulars: Homo sapiens; 2008 cells, 72 hrs exposure; read-out: IC50 (cell growth inhibition). The procedure: as §3, §2
Experiment [4] relates to human ovarian cancer cell line A2780. Briefly: Cell growth assay (crystal violet dye), A2780 cells. The class given is cell-based. The conditions noted are these: Homo sapiens, 72 hrs exposure, read-out: IC50 (cell growth inhibition). The procedure:
as §1, §2

Experiment [5] relates to HCT 116 colon carcinoma cell line. Briefly: Cell proliferation MTT assay, HCT 116. Particulars: Homo sapiens, HCT-116, 24 h, read-out: MTT cell proliferation, percentage compared to control cells considered as 100%; for activity at 10 µM: HCT 116, compound at 10 uM. In kind it is cell-based. The procedure:
(§4) Cell cultures and treatments. Human tumor cells (HeLa from uterin cervix and HCT116 from colon carcinoma) were grown at 37° C. in humidified atmosphere containing 5% CO2 in D-MEM supplemented with 10% FCS, 4 mM glutamine, 2 mM Na pyruvate, 100 U/mL penicillin and 0.1 mg/mL streptomycin (all reagents were from Celbio, Pero, Italy). HeLa cells are the most widely used human tumor cell line; HCT 116 colon carcinoma cell line has proven to be extremely resistant to conventional chemotherapy. Cells were treated with the compounds of the invention at a fixed dose of 10 uM for 24 h, eventually followed by 24 of recovery in drug free medium. As a positive control of growth inhibition, cells were treated with 10 uM etoposide. Some of the inventive were also assayed at a dose of 1 uM.
(§5) Cell proliferation assays—MTT assay. Cells are seeded in 96 multiwell-plates at the density of 10^3/100 μl (except fibroblasts that are seeded at the density of 1.5×10^3/100 μl). Cells are treated 24 h later with the drug for 24 h eventually followed by 24 h of recovery in drug-free medium. At the end of the treatments, 20 μl of CellTiter 96 Non-Radioactive Cell Proliferation Assay (MTT; Promega, Milano, Italy) are added to each well. Plates are then incubated for 4 h at 37° C. in the dark and analyzed with a reader of microplates (Gio. De Vita, Roma, Italy) at 492 nm. Experiments are performed in quadruplicate and repeated three times. Data are expressed in the following Tables 2a-c as the percentage compared to control cells considered as 100%.
(In general: Formazan colour is commonly taken as a measure of viable cells.)

The subject of another experiment is HeLa cells. Briefly: Cell proliferation MTT assay, HeLa. In kind it is cell-based. Particulars: Homo sapiens, 24 h, read-out: MTT cell proliferation, percentage compared to control cells considered as 100%; for activity at 1 µM: compound at 1 uM; for activity at 10 µM: compound at 10 uM. The procedure:
as §4, §5

For the next experiment, the system named is tumour cell lines. Nature of the experiment: In vitro antitumour activity, panel of tumour cell lines (statement in words). The class given is cell-based, human. The conditions noted are these: compared with the novel compounds / prior art protoberberines. The procedure: as §3
Where [6] appears, read: 24 h + 24 h recovery in drug-free medium.

One may read the IC50 as the concentration that inhibits the measured activity by half.

On to `COc1ccc2c(Cc3ccccc3)c3[n+](cc2c1OC)CCc1cc2c(cc1-3)OCO2.[I-]` [Comp Ex, 13-benzyl-9,10-dimethoxy-5,6-dihydrobenzo[g]-1,3-benzodioxolo[5,6-a]quinolizinium iodide, reference compound], for which the IC50 came to 3.3 µM in experiment [1], 5 µM in experiment [2], 9.2 µM in experiment [3] and 2.5 µM in experiment [4]. Moreover, the activity at 1 µM in experiment [5] (HCT 116, compound at 1 uM, 24 h exposure) was 119%; with HeLa cells (setting [6]), 93.6%; in the experiment on HeLa cells, 139%. In addition, the activity at 10 µM is 22.2% in experiment [5] (setting [6]), 20.4% in experiment [5] (24 h), 74.5% in the experiment with HeLa cells (setting [6]) and 98% with HeLa cells. The “antitumour activity (in words)” value in the experiment with tumour cell lines was “much lower antitumour activity”.
